{
  "source": "ChEMBL document CHEMBL5726751",
  "about": "“Substituted spirocyclic inhibitors of autotaxin” (2019)",
  "note": "pIC50: −log10 of the molar value.",
  "data": [
    {"target": "Autotaxin (Homo sapiens, UniProt Q13822)", "assay": "The following assays and their respective methods are carried out with the compounds according to the present invention. […] Those skilled in the art will appreciate that a variety of assay formats may be used to determine the activity of the compounds of this invention.Autotaxin LPC Cascade Assay:Assay Buffer:100 mM Tris-HCl, pH=9500 mM NaCl5 mM MgCl25 mM CaCl20.05% Triton X 100Reagents:Enzyme Source Stock conc Working conc. Final conc. Autotaxin X-Chem 4.6 μM 20 nM 5 nM LPC Sigma L5254 8 mM in assay buffer 400 μM 100 μM Choline Oxidase Sigma C5896 50 U/mL in water 0.8 U/mL 0.1 U/mL HRP Sigma P8375 1000 U/mL in water 8 U/mL 1 U/mL Ampliflu Red Sigma 90101 100 mM in DMSO 400 μM 50 μM.", "assay_type": "[…]", "values": [
      {"smiles": "CC(C)[C@@H](NC(=O)c1cc(C(F)(F)F)ccc1F)C(=O)N1CCC2(CC1)C(=O)N(C)C(=O)N2c1ccc(OCCN(C)C)cc1", "pIC50": "< 6.00"},
      {"smiles": "CC(C)[C@@H](NC(=O)c1ccc(C#N)c(Cl)c1)C(=O)N1CCC2(CC1)C(=O)N(C)CN2c1ccccc1", "pIC50": "< 6.00"},
      {"smiles": "CN1C(=O)N(c2ccc3[nH]ncc3c2)C2(CCN(C(=O)C3(NC(=O)c4cc(C(F)(F)F)ccc4F)COC3)CC2)C1=O", "pIC50": "< 6.00"},
      {"smiles": "Cc1cccc(C(=O)N[C@@H](C(=O)N2CCC3(CC2)C(=O)N(C)CN3c2cccc(C#N)c2)C(C)C)c1F", "pIC50": "< 6.00"},
      {"smiles": "Cc1cccc(C(=O)N(C)[C@@H](C(=O)N2CCC3(CC2)C(=O)N(C)CN3c2ccccc2)C(C)C)c1", "pIC50": "< 6.00"}
    ]}
  ]
}
